Source: PubChem BioAssay (NCI)
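A five-concentration, 48-hour dose response in 96-well plates underlies each endpoint, interpolated linearly between surrounding concentrations. GI50 is the concentration that inhibits growth by half. The concentration for full growth arrest is given as TGI.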

Key:
Assay in all cases: inhibition of tumour cell growth, NCI panel, 48 h
A549 NSCLC = test system: A549 NSCLC
HCT-116 colon = test system: HCT-116 colon
COLO 205 colon = test system: COLO 205 colon
SN12C renal = test system: SN12C renal
SNB-75 CNS = test system: SNB-75 CNS
NCI-H460 lung = test system: NCI-H460 lung
CAKI-1 renal = test system: CAKI-1 renal
EKVX NSCLC = test system: EKVX NSCLC
DU-145 prostate = test system: DU-145 prostate
PC-3 prostate = test system: PC-3 prostate

| SMILES | TGI (A549 NSCLC) [µM] | TGI (HCT-116 colon) [µM] | TGI (COLO 205 colon) [µM] | TGI (SN12C renal) [µM] | TGI (SNB-75 CNS) [µM] | TGI (NCI-H460 lung) [µM] | TGI (CAKI-1 renal) [µM] | TGI (EKVX NSCLC) [µM] | GI50 (EKVX NSCLC) [nM] | GI50 (A549 NSCLC) [nM] | GI50 (HCT-116 colon) [nM] | GI50 (COLO 205 colon) [nM] | GI50 (SN12C renal) [nM] | GI50 (SNB-75 CNS) [nM] | GI50 (NCI-H460 lung) [nM] | GI50 (CAKI-1 renal) [nM] | TGI (DU-145 prostate) [µM] | TGI (PC-3 prostate) [µM] | GI50 (DU-145 prostate) [µM] | GI50 (PC-3 prostate) [nM] |
| --- | --- | --- | --- | --- | --- | --- | --- | --- | --- | --- | --- | --- | --- | --- | --- | --- | --- | --- | --- | --- |
| O=C1/C(=N\O)c2ccccc2S1(=O)=O | > 100 | > 100 | 73.6 | > 100 | > 100 | > 100 | 83.7 | – | – | – | – | – | – | – | – | – | – | – | – | – |
| CCN(CC)CC(C)(C)C(=O)/C=C/c1cccc(/C=C/C(=O)C(C)(C)CN(CC)CC)c1 | 2.67 | 1.24 | 0.821 | 1.04 | 1.19 | 2.31 | 0.965 | 2.53 | – | – | – | – | – | – | – | – | – | – | – | – |
| c1ccc([CH2][Sn]([CH2]c2ccccc2)([O]c2cccc3cccnc23)[O]c2cccc3cccnc23)cc1 | 0.69 | 1.19 | 0.477 | 2.1 | 1.81 | 0.446 | 2.2 | 1.99 | 741 | 245 | 211 | 194 | 603 | 468 | 207 | 920 | – | – | – | – |
| C#CCNC(=O)N(CC#C)N=O | – | > 100 | – | > 100 | > 100 | > 100 | > 100 | > 100 | – | – | – | – | – | – | – | – | – | – | – | – |
| COc1ccccc1C1C(Cl)C(=O)N1n1cnc2ccccc2c1=O (configuration not stated) | > 100 | > 100 | > 100 | > 100 | > 100 | > 100 | > 100 | > 100 | – | – | – | – | – | – | – | – | – | – | – | – |
| CC(C)N1CC2CN(Cc3ccccc3)CC(C1)C2=O | > 100 | > 100 | > 100 | > 100 | > 100 | > 100 | > 100 | – | – | – | – | – | – | – | – | – | > 100 | > 100 | – | – |
| Cn1cc(C2=C(c3ccccc3[N+](=O)[O-])C(=O)NC2=O)c2ccccc21 | > 21.8 | > 25 | 6.38 | > 25 | 2.39 | > 25 | > 20.8 | – | – | 4090 | 1380 | 2790 | 4980 | 70.5 | 4850 | 3870 | > 25 | 11.6 | 6.13 | 1650 |
| CO/C=C/C(=O)c1cc2cnc3c(=N)cc(NC(=O)C(C)C)c([nH]1)c23 | 15.1 | 0.282 | 0.869 | 1.61 | 0.0982 | 11.4 | – | – | – | 1520 | 58.5 | 135 | 24.6 | 7.63 | 323 | – | 6.35 | 0.817 | 0.0864 | 18.3 |
| COC1OC(CO)C(O)C(OC(C)=O)C1NC(=O)N(CCCl)N=O (configuration not stated) | > 100 | > 100 | > 100 | > 100 | > 100 | > 100 | > 100 | > 100 | – | – | – | – | – | – | – | – | – | – | – | – |
| O=[N+]([O-])c1ccc(C2CC(c3ccccc3Cl)=Nc3ccccc3S2)cc1 (configuration not stated) | 33.4 | 4.92 | > 57.6 | 17.4 | 44.1 | 45.1 | > 73.5 | 31 | – | – | – | – | – | – | – | – | – | – | – | – |
| Oc1ccc([Te]CCNCC[Te]c2ccc(O)cc2)cc1 | 16.6 | 28.4 | 22.4 | > 100 | 70.8 | 33.9 | > 100 | 19 | – | – | – | – | – | – | – | – | – | – | – | – |
| CCCCCCCCOCC(O)COC(C)C (configuration not stated) | > 100 | > 100 | > 100 | 73.1 | – | > 100 | > 100 | – | – | – | – | – | – | – | – | – | – | – | – | – |
| Cc1cc([N+](=O)[O-])ccc1NC(=O)C(=O)C(C(=O)c1ccccc1-c1ccccc1)C1OC(=O)c2ccccc21 (configuration not stated) | > 100 | 29.9 | 41.8 | 37.4 | – | 38.2 | 59.5 | – | – | – | – | – | – | – | – | – | – | – | – | – |
| N.N.NCCCCCN.O=C([O-])CCl.O=C([O-])CCl.O=C([O-])CCl.O=C([O-])CCl.[Pt+4].[Pt+4] | 30 | > 100 | 8.45 | 1.69 | 11.8 | 18.6 | 7.55 | 58.2 | 17000 | 3030 | 10800 | 1780 | 161 | 996 | 316 | 1200 | – | – | – | – |
| C=C1CC2CCCC12C=O (configuration not stated) | > 10 | > 10 | > 10 | > 10 | > 10 | – | > 10 | – | – | – | – | – | – | – | – | – | > 10 | > 10 | – | – |
| CN1C(=O)CCC2[C@@H]3CC=C4C[C@@H](O)CC[C@]4(C)C3CC[C@@]21C (some centres not stated) | > 100 | > 100 | – | – | > 100 | > 100 | > 100 | > 100 | – | – | – | – | – | – | – | – | – | – | – | – |
| C[C@]12CCc3nc(Nc4cccc(O)c4)sc3C1=CC[C@@H]1[C@@H]2CC[C@]2(C)/C(=N\NC(N)=S)CC[C@@H]12 | 11.4 | 2.69 | 3.61 | 5.31 | 7.01 | 4.05 | 3.26 | 9.26 | 2740 | 2950 | 1340 | 1910 | 1980 | 792 | 1960 | 1640 | – | 6.35 | – | 1700 |
| COC(=O)C1=Cc2cc(OC)c(OC)c(OC)c2[C@H](c2cc(OC)c(OC)c(OC)c2)C1C(=O)OC (some centres not stated) | > 100 | > 100 | > 100 | > 100 | > 100 | > 100 | > 100 | > 100 | – | – | – | – | – | – | – | – | – | – | – | – |
| Cc1ccc(S(=O)(=O)c2ccc(NC(=O)SCCC(=O)O)cc2)cc1 | > 100 | > 100 | > 100 | > 100 | > 100 | > 100 | > 100 | > 100 | – | – | – | – | – | – | – | – | – | – | – | – |
| O=C(C=C1SCCS1)/C=C\c1ccc(Cl)cc1 | > 100 | > 100 | > 100 | > 100 | > 100 | – | > 100 | > 100 | – | – | – | – | – | – | – | – | – | – | – | – |
| COc1c(C)cc(O)cc1C=O | > 100 | – | > 100 | > 100 | > 100 | > 100 | > 100 | > 100 | – | – | – | – | – | – | – | – | – | – | – | – |
